Measurements published in patent US5968955A, “Disubstituted piperidine derivatives as neuroprotective agents” (Pharmacia & Upjohn S.p.A., priority 1995, dated 1999).

Tests used:
[1] = system: mixed cortical neuronal cultures; experiment: neuroprotection against NMDA induced toxicity in mixed cortical neuronal cultures (Trypan Blue Dye Exclusion); format: cell-based, rat (foetal rats); details: prevention of toxicity by NMDA 500 μM, 20 min exposure, 3 min preincubation, viability after 24 h
Method: The efficacy of the compounds of the invention as neuroprotective agents, based upon their ability to prevent EEA induced toxicity in vitro, was evaluated in mixed cortical neuronal cultures, following the method reported below.
Mixed cortical neuronal cultures from foetal rats at 16 days of gestation were prepared as described by Choi (J. Neur. Sci. 7: 357-368, 1987).
Briefly, dissociated cells were plated on poly-L-lysine coated multiwell plates at density of 1*10^5 cells/cm^2 in MEM with Earle's salts supplemented with 21 mM D-glucose, 2 mM L-glutamine, 50 μg/ml Streptomicin, 50 IU Penicillin, 10% Foetal Calf Serum and 10% Horse Serum. Cultures were kept at 37° C., 5% CO2 and survived about 5 weeks. After 7 days in vitro, astrocites proliferation was inhibited by adding 10 μM Cytosine Arabinoside for 48 hours; the medium was subsequently substituted twice a week with a fresh medium without foetal calf serum (Hatley, J. Pharm. and Exp. Ther. 250 (II);752-758, 1989).
Only nature cortical cultures, from 14 DIV on, were used for the study.
Experiments were performed at 25° C. as follows: cells were washed once with a Locke's buffer, (128 mM NaCl, […] KCl, 1.2 mM Na2 HPO4, 2.7 mM CaCl2, 20 mM Hepes and 10 mM D-glucose) pH=7.4, then preincubated with the test compounds for 3 min. followed by a 20 min. exposure to N-methyl-D-aspartate (NMDA) (500 μM).
The incubation was stopped by removing Locke's buffer and substituting the conditioned medium. After 24 hours at 37° C., 5% CO2, Trypan Blue Dye Exclusion Test (0.04%) was used for evaluating the cells viability.

[2] = system: focal ischemia in mice (Middle Cerebral Artery occlusion); experiment: antiischemic activity in vivo in the model of focal ischemia in mice (MCA electrocoagulation), infarct volume; set-up: species or system mice (male Swiss CD); details: male Swiss mice; for Infarct volume: Means ± SEM after MCA occlusion, day 4, 7 mg/Kg i.p. 5 min and 6 h after ischemia, then twice a day on days 2, 3 and 4, saline 20.9 ± 1.7, P < 0.01 from controls
Method: The antiischemic activity of the compounds of the present invention was evaluated in vivo in the model of focal ischemia in mice.
Focal ischemia was produced in mice by electrocoagulation of the Middle Cerebral Artery (MCA) according the procedure reported by Welsh et al. (Welsh F A, Sakamoto T, McKee A, Sims R E, J Neurochem: 49: 846-851, 1987). Briefly, male Swiss CD mice (C. River, Milan, Italy) were anesthetised with chloral hydrate (500 mg/Kg i.p.); an incision was made on the temporo-parietal region of the head and a small burr hole was drilled into the lateral outer surface of the skull just over the MCA. The stem of the MCA was occluded by microbipolar coagulation. Animals were maintained under an heating lamp during surgery and for two hours afterwards.
Four days after the occlusion, mice were decapitated and the brains stored a -20° C. until sectioned for histological examination.
Coronal sections (50 μm thick) of the frozen brains were taken every 1.00 mm in order to evaluate the infarct volume.
The slices were stained with cresyl violet and the cortical infarct area of each slice was determined by an image analyzing system (Ibas 20, Kontron, Milan, Italy). Infarct volume was calculated from the infarct area on each slice and the distance between succeeding slices.
The treatment schedule consisted in the administration of the tested compound 5 min and 6 h after ischemia during the first day after surgery and then twice a day on days 2, 3 and 4 according to published data (Gotti B. et al.; Brain Research, 522,290-307, 1990). The tested compounds were given i.p. at the dose of 7 mg/Kg.
Dosing was performed till sacrifice. The time schedule, the doses and the route of administration of the tested compounds were selected on the basis of preliminary experiments.

Structure (SMILES) | EC50 ([1]; Rattus norvegicus) | other results
COc1cc(C(O)CN2CCC(C(=O)c3ccc(F)cc3)CC2)on1 (racemic) [Compound 27, (±)2-[4-(p-Fluoro-benzoyl)-piperidin-1-yl]-1-(3-methoxy-isoxazol-5-yl)-ethan-1-ol] | 0.64 µM | –
ON=C(CN1CCC(Cc2ccccc2)CC1)c1cc(Br)no1 [Compound 17, (±)-2-(4-Benzyl-piperidin-1-yl)-1-(3-bromo-isoxazol-5-yl)-ethan-1-one-oxyme] | – | EC50 [1]: 2.13 µM
O=C(c1ccc(F)cc1)C1CCN(CC(O)c2cc(Br)no2)CC1 (centres unmarked) [Compound 25, 2-[4-(4-fluoro-benzoyl)piperidin-1-yl]-1-(3-bromo-isoxazol-5-yl)-ethan-1-ol] | 22 µM | –
COc1cc(C(O)CN2CCC(Cc3ccccc3)CC2)on1 (racemic) [Compound 3, (±)-2-(4-Benzyl-piperidin-1-yl)-1-(3-methoxy-isoxazol-5-yl)-ethan-1-ol] | 3.29 µM | Effect on infarct volume compared with saline-treated mice (in words) ([2]; 7 mg/Kg i.p., day 4, versus saline): significantly reduce infarct volume; Infarct volume ([2]; 7 mg/kg): 13.6 ± 1.5 mm^3; Infarct volume ([2]; listed as Example 2, 7 mg/kg): 13.6±1.5 mm^3
OC(CN1CCC(Cc2ccccc2)CC1)c1cc(Br)no1 (racemic) [Compound 1, (±)-2-(4-Benzyl-piperidin-1-yl)-1-(3-bromo-isoxazol-5-yl) -ethan-1-ol] | 2.02 µM | –
